Laboratory results from patent publication US20240325398A1, “COMBINATION THERAPIES” (Infinity Pharmaceuticals, Inc., priority 2014, published 2024).
Where a name gives a salt, the structure may show the parent alone.

Key:
[1] = test system: CDK1, CDK2, CDK4, CDK7 and CDK9; details: in words; cited from earlier work
GRANTA-519 = experiment: Combination study, ATPLite 72 h, dose matrix (Synergy Score, CI50); details: combination with Compound 1
HBL-1 = experiment: as above; details: combination with Compound 1, 72 h
RL = experiment: as above; details: combination with Compound 1, 72 h
DOHH-2 = experiment: as above; details: combination with Compound 1, 72 h
Jeko-1 = experiment: as above; details: combination with Compound 1
SU-DHL-10-epst = experiment: as above; details: combination with Compound 1, 72 h
SU-DHL-4-epst = experiment: as above; details: combination with Compound 1, 72 h
KARPAS-299 = experiment: as above; details: combination with Compound 1
HH = experiment: as above; format: cell-based; details: combination with Compound 1
Description: The method is described as follows.
Additive effect is CI=1.0. […] Antagonistic effect is CI>1.0.
The Synergy Score is calculated as: […]

RPMI-8226 = experiment: as above; details: combination with Compound 1
NCI-H929 = experiment: as above; details: combination with Compound 1
TMD8 = experiment: as above; details: combination with Compound 1; TMD8; 72 h
OCI-Ly7 = experiment: as above; details: combination with Compound 1, 72 h
U-2932 = experiment: as above; details: combination with Compound 1, 72 h
Description: (§1) Cells are thawed from a liquid nitrogen preserved state. Once cells have been expanded and divide at their expected doubling times, screening begins. Cells are seeded in growth media in either black 1536-well or 384-well tissue culture treated plates. Cells are then equilibrated in assay plates via centrifugation and placed in incubators attached to the Dosing Modules at 37° C. for 24 hours before treatment. […] These Tzero (To) plates are read using ultra-sensitive luminescence on Envision plate readers (Perkin Elmer). Treated assay plates are incubated with compound for 72 hours. After 72 hours, plates are developed for endpoint analysis using ATPLite. All data points are collected via automated processes, quality controlled and analyzed using Zalicus software.
(§2) where T is treated cell count and V is untreated (vehicle) cell count (at 72 hours). I ranges from 0% (when T=V) to 100% (when T=0). […] The measure of effect in the experiment can be the inhibition of cellular response relative to the untreated level (vehicle alone). […] The inhibition ranges from 0% at the untreated level to 100% when T=0. Inhibition levels are negative for agents that actually increase levels. Other effect measures, such as an activity ratio r=T/V may be more appropriate for some assays. When activity ratios (e.g, fold increase over stimulated control) are being used, the effect can be measured using an induction 1=ln(T/V). With this definition, all effect expressions are the same as for inhibition.
(§3) Growth Inhibition (GI) is used as a measure of cell viability. […] A GI reading of 100% represents complete growth inhibition—T72 compound-treated and T0 vehicle signals are matched. […] A GI reading of 200% represents complete death of all cells in the culture well. Compounds reaching an activity plateau of GI 200% are considered cytotoxic. GI is calculated by applying the following test and equation:
(§4) Combination analysis data were collected in a 6×6 dose matrix. Synergy is calculated by comparing a combination's response to those of its single compound, against the drug-with-itself dose-additive reference model. Deviations from dose additivity may be assessed visually on an isobologram or numerically with a Combination Index (CI). […] Additive effect is CI=1.0. […] Antagonistic effect is CI>1.0.
(§5) To measure combination effects in excess of Loewe additivity, a scalar measure to characterize the strength of synergistic interaction termed the Synergy Score is devised. The Synergy Score is calculated as:
(§6) The fractional inhibition for each component agent and combination point in the matrix is calculated relative to the median of all vehicle-treated control wells. The Synergy Score equation integrates the experimentally-observed activity volume at each point in the matrix in excess of a model surface numerically derived from the activity of the component agents using the Loewe model for additivity. Additional terms in the Synergy Score equation (above) are used to normalize for various dilution factors used for individual agents and to allow for comparison of synergy scores across an entire experiment. The inclusion of positive inhibition gating or an Idata multiplier removes noise near the zero effect level, and biases results for synergistic interactions at that occur at high activity levels.
Loewe Volume (Loewe Vol) is used to assess the overall magnitude of the combination interaction in excess of the Loewe additivity model. Loewe Volume is particularly useful when distinguishing synergistic increases in a phenotypic activity (positive Loewe Volume) versus synergistic antagonisms (negative Loewe Volume). […] This model defines additivity as a non-synergistic combination interaction where the combination dose matrix surface should be indistinguishable from either drug crossed with itself. The calculation for Loewe additivity is:

[2] = as above; details: combination with Compound 1; OPM-2
OMP-2 = experiment: as above; details: combination with Compound 1; OPM-2
KARPAS-422 = experiment: as above; details: combination with Compound 1, 72 h
Mino = experiment: as above; details: combination with Compound 1
OCI-Ly3 = experiment: as above; details: combination with Compound 1; OCI-Ly3; 72 h
Farage = experiment: as above; details: combination with Compound 1; Farage; 72 h
WSU-NHL = experiment: as above; details: combination with Compound 1, 72 h
Description: as §1, §2, §3, §4, §5, §6
Loewe Volume (Loewe Vol) is used to assess the overall magnitude of the combination interaction in excess of the Loewe additivity model. Loewe Volume is particularly useful when distinguishing synergistic increases in a phenotypic activity (positive Loewe Volume) versus synergistic antagonisms (negative Loewe Volume). […] This model defines additivity as a non-synergistic combination interaction where the combination dose matrix surface should be indistinguishable from either drug crossed with itself.

## CC1(C)/C(=C2/C(=O)Nc3ccc(S(N)(=O)=O)cc32)Nc2ccccc21 [ZK-304709, (Z)-3,3-dimethyl-2′-oxo-[2,3′-biindolinylidene]-5′-sulfonamide]
[1]
  IC50 values, CDK1, CDK2, CDK4, CDK7 and CDK9: nanomolar range

## COc1cccc2c1C(=O)c1c(O)c3c(c(O)c1C2=O)C[C@@](O)(C(=O)CO)C[C@@H]3O[C@H]1C[C@H](N)[C@H](O)[C@H](C)O1 [Doxorubicin HCl]
GRANTA-519
  CI50 growth inhibition: S (S=0.01 to <0.5)
  CI50 inhibition: W (W=≥1)
  Synergy Score growth inhibition: A3 (A3=>3)
  Synergy Score inhibition: A1 (A1=0.0001 to <1)
HBL-1
  CI50 growth inhibition: S (S=0.01 to <0.5)
  CI50 inhibition: U (U=0.7 to <1)
  Synergy Score growth inhibition: A3 (A3=>3)
  Synergy Score inhibition: A1 (A1=0.0001 to <1)
RL
  CI50 growth inhibition: U (U=0.7 to <1)
  CI50 inhibition: W (W=≥1)
  Synergy Score growth inhibition: A2 (A2=1 to <3)
  Synergy Score inhibition: A1 (A1=0.0001 to <1)
DOHH-2
  CI50 growth inhibition: T (T=0.5 to <0.7)
  CI50 inhibition: T (T=0.5 to <0.7)
  Synergy Score growth inhibition: A3 (A3=>3)
  Synergy Score inhibition: A2 (A2=1 to <3)
Jeko-1
  CI50 growth inhibition: T (T=0.5 to <0.7)
  CI50 inhibition: U (U=0.7 to <1)
  Synergy Score growth inhibition: A3 (A3=>3)
  Synergy Score inhibition: A1 (A1=0.0001 to <1)
SU-DHL-10-epst
  CI50 growth inhibition: T (T=0.5 to <0.7)
  CI50 inhibition: T (T=0.5 to <0.7)
  Synergy Score growth inhibition: A3 (A3=>3)
  Synergy Score inhibition: A2 (A2=1 to <3)
SU-DHL-4-epst
  CI50 growth inhibition: U (U=0.7 to <1)
  CI50 inhibition: W (W=≥1)
  Synergy Score growth inhibition: A3 (A3=>3)
  Synergy Score inhibition: A2 (A2=1 to <3)
KARPAS-299
  CI50 growth inhibition: U (U=0.7 to <1)
  CI50 inhibition: U (U=0.7 to <1)
  Synergy Score growth inhibition: A2 (A2=1 to <3)
  Synergy Score inhibition: A1 (A1=0.0001 to <1)
HH
  CI50 growth inhibition: W (W=≥1)
  CI50 inhibition: T (T=0.5 to <0.7)
  Synergy Score growth inhibition: A3 (A3=>3)
  Synergy Score inhibition: A2 (A2=1 to <3)
RPMI-8226
  CI50 growth inhibition: U (U=0.7 to <1)
  CI50 inhibition: W (W=≥1)
  Synergy Score growth inhibition: A3 (A3=>3)
  Synergy Score inhibition: A2 (A2=1 to <3)
NCI-H929
  CI50 growth inhibition: U (U=0.7 to <1)
  CI50 inhibition: U (U=0.7 to <1)
  Synergy Score growth inhibition: A3 (A3=>3)
  Synergy Score inhibition: A1 (A1=0.0001 to <1)
TMD8
  CI50 growth inhibition: T (T=0.5 to <0.7)
  CI50 inhibition: T (T=0.5 to <0.7)
  Synergy Score growth inhibition: A3 (A3=>3)
  Synergy Score inhibition: A2 (A2=1 to <3)
OCI-Ly7
  CI50 growth inhibition: S (S=0.01 to <0.5)
  CI50 inhibition: S (S=0.01 to <0.5)
  Synergy Score growth inhibition: A3 (A3=>3)
  Synergy Score inhibition: A2 (A2=1 to <3)
U-2932
  CI50 growth inhibition: U (U=0.7 to <1)
  CI50 inhibition: W (W=≥1)
  Synergy Score growth inhibition: A2 (A2=1 to <3)
  Synergy Score inhibition: A1 (A1=0.0001 to <1)
[2]
  CI50 growth inhibition: W (W=≥1)
OMP-2
  CI50 inhibition: W (W=≥1)
  Synergy Score growth inhibition: A2 (A2=1 to <3)
  Synergy Score inhibition: A1 (A1=0.0001 to <1)
KARPAS-422
  CI50 growth inhibition: W (W=≥1)
  CI50 inhibition: W (W=≥1)
  Synergy Score growth inhibition: A1 (A1=0.0001 to <1)
  Synergy Score inhibition: A1 (A1=0.0001 to <1)
Mino
  CI50 growth inhibition: T (T=0.5 to <0.7)
  CI50 inhibition: T (T=0.5 to <0.7)
  Synergy Score growth inhibition: A3 (A3=>3)
  Synergy Score inhibition: A2 (A2=1 to <3)
OCI-Ly3
  CI50 growth inhibition: U (U=0.7 to <1)
  CI50 inhibition: W (W=≥1)
  Synergy Score growth inhibition: A2 (A2=1 to <3)
  Synergy Score inhibition: A1 (A1=0.0001 to <1)
Farage
  CI50 growth inhibition: U (U=0.7 to <1)
  CI50 inhibition: T (T=0.5 to <0.7)
  Synergy Score growth inhibition: A3 (A3=>3)
  Synergy Score inhibition: A1 (A1=0.0001 to <1)
WSU-NHL
  CI50 growth inhibition: T (T=0.5 to <0.7)
  CI50 inhibition: S (S=0.01 to <0.5)
  Synergy Score growth inhibition: A3 (A3=>3)
  Synergy Score inhibition: A2 (A2=1 to <3)
